From ChEMBL document CHEMBL1671626, “In vitro profiling of ceftaroline against a collection of recent bacterial clinical isolates from across the United States” (2008)

Experiments:
Format in all cases: functional
Providencia sp. = assay: Antibacterial activity against ceftazidime-susceptible Providencia sp. assessed as susceptible isolates by CLSI M7-A7 broth microdilution method
Enterobacteriaceae [1] = assay: Antibacterial activity against ceftazidime-susceptible Enterobacteriaceae assessed as susceptible isolates by CLSI M7-A7 broth microdilution method
Morganella morganii = assay: Antibacterial activity against ceftazidime-susceptible Morganella morganii by CLSI M7-A7 broth microdilution method
Streptococcus pyogenes [2] = assay: Antibacterial activity against erythromycin-nonsusceptible Streptococcus pyogenes assessed as susceptible isolates by CLSI M7-A7 broth microdilution method
Acinetobacter [3] = assay: Antibacterial activity against multidrug-resistant Acinetobacter assessed as susceptible isolates by CLSI M7-A7 broth microdilution method
Haemophilus influenzae [4] = assay: Antibacterial activity against beta lactamase-negative Haemophilus influenzae assessed as susceptible isolates by CLSI M7-A7 broth microdilution method
Streptococcus viridans [5] = assay: Antibacterial activity against penicillin-nonsusceptible Streptococcus viridans assessed as susceptible isolates by CLSI M7-A7 broth microdilution method
Enterobacteriaceae [6] = assay: Antibacterial activity against ceftazidime-susceptible Enterobacteriaceae by CLSI M7-A7 broth microdilution method
Serratia marcescens [7] = assay: Antibacterial activity against ceftazidime-susceptible Serratia marcescens by CLSI M7-A7 broth microdilution method
Streptococcus viridans [8] = assay: Antibacterial activity against penicillin-susceptible Streptococcus viridans assessed as susceptible isolates by CLSI M7-A7 broth microdilution method
Haemophilus influenzae [9] = assay: Antibacterial activity against beta lactamase-negative Haemophilus influenzae by CLSI M7-A7 broth microdilution method
Enterobacter cloacae [10] = assay: Antibacterial activity against ceftazidime-nonsusceptible Enterobacter cloacae by CLSI M7-A7 broth microdilution method
Streptococcus pyogenes [11] = assay: Antibacterial activity against erythromycin-nonsusceptible Streptococcus pyogenes by CLSI M7-A7 broth microdilution method
Staphylococcus aureus [12] = assay: Antibacterial activity against methicillin-susceptible Staphylococcus aureus assessed as resistant isolates by CLSI M7-A7 broth microdilution method
Proteus mirabilis [13] = assay: Antibacterial activity against ceftazidime-susceptible Proteus mirabilis assessed as susceptible isolates by CLSI M7-A7 broth microdilution method
Proteus mirabilis [14] = assay: Antibacterial activity against ceftazidime-susceptible Proteus mirabilis by CLSI M7-A7 broth microdilution method
Streptococcus agalactiae [15] = assay: Antibacterial activity against erythromycin-susceptible Streptococcus agalactiae by CLSI M7-A7 broth microdilution method
Staphylococcus aureus [16] = assay: Antibacterial activity against coagulase-negative and oxacillin-susceptible Staphylococcus aureus assessed as susceptible isolates by CLSI M7-A7 broth microdilution method
Haemophilus influenzae [17] = assay: Antibacterial activity against beta lactamase-positive Haemophilus influenzae assessed as susceptible isolates by CLSI M7-A7 broth microdilution method
Streptococcus agalactiae [18] = assay: Antibacterial activity against erythromycin-nonsusceptible Streptococcus agalactiae assessed as susceptible isolates by CLSI M7-A7 broth microdilution method
Enterobacteriaceae [19] = assay: Antibacterial activity against ceftazidime-susceptible Enterobacteriaceae assessed as resistant isolates by CLSI M7-A7 broth microdilution method
Staphylococcus aureus [20] = assay: Antibacterial activity against methicillin-resistant Staphylococcus aureus assessed as susceptible isolates by CLSI M7-A7 broth microdilution method
Streptococcus viridans [21] = assay: Antibacterial activity against penicillin-susceptible Streptococcus viridans assessed as resistant isolates by CLSI M7-A7 broth microdilution method
Enterobacteriaceae [22] = assay: Antibacterial activity against ceftazidime-nonsusceptible Enterobacteriaceae assessed as susceptible isolates by CLSI M7-A7 broth microdilution method
Staphylococcus aureus [23] = assay: Antibacterial activity against methicillin-susceptible Staphylococcus aureus by CLSI M7-A7 broth microdilution method
Klebsiella pneumoniae [24] = assay: Antibacterial activity against ceftazidime-susceptible Klebsiella pneumoniae assessed as resistant isolates by CLSI M7-A7 broth microdilution method
Citrobacter freundii [25] = assay: Antibacterial activity against ceftazidime-susceptible Citrobacter freundii by CLSI M7-A7 broth microdilution method
Pasteurella multocida [26] = assay: Antibacterial activity against Pasteurella multocida by CLSI M7-A7 broth microdilution method
Streptococcus pneumoniae = assay: Antibacterial activity against penicillin-susceptible Streptococcus pneumoniae assessed as resistant isolates by CLSI M7-A7 broth microdilution method
Acinetobacter [27] = assay: Antibacterial activity against multidrug-resistant Acinetobacter assessed as resistant isolates by CLSI M7-A7 broth microdilution method
Enterobacter cloacae [28] = assay: Antibacterial activity against ceftazidime-susceptible Enterobacter cloacae by CLSI M7-A7 broth microdilution method
Citrobacter freundii [29] = assay: Antibacterial activity against ceftazidime-nonsusceptible Citrobacter freundii assessed as resistant isolates by CLSI M7-A7 broth microdilution method
Streptococcus agalactiae [30] = assay: Antibacterial activity against erythromycin-susceptible Streptococcus agalactiae assessed as susceptible isolates by CLSI M7-A7 broth microdilution method
Acinetobacter [31] = assay: Antibacterial activity against multidrug-resistant Acinetobacter by CLSI M7-A7 broth microdilution method
Staphylococcus aureus [32] = assay: Antibacterial activity against coagulase-negative and oxacillin-susceptible Staphylococcus aureus assessed as resistant isolates by CLSI M7-A7 broth microdilution method
Staphylococcus aureus [33] = assay: Antibacterial activity against methicillin-resistant Staphylococcus aureus by CLSI M7-A7 broth microdilution method
Serratia marcescens [34] = assay: Antibacterial activity against ceftazidime-susceptible Serratia marcescens assessed as susceptible isolates by CLSI M7-A7 broth microdilution method
Staphylococcus aureus [35] = assay: Antibacterial activity against coagulase-negative and oxacillin-susceptible Staphylococcus aureus by CLSI M7-A7 broth microdilution method
Escherichia coli [36] = assay: Antibacterial activity against ceftazidime-nonsusceptible Escherichia coli by CLSI M7-A7 broth microdilution method
Klebsiella pneumoniae [37] = assay: Antibacterial activity against ceftazidime-nonsusceptible Klebsiella pneumoniae assessed as susceptible isolates by CLSI M7-A7 broth microdilution method
Citrobacter freundii [38] = assay: Antibacterial activity against ceftazidime-nonsusceptible Citrobacter freundii assessed as susceptible isolates by CLSI M7-A7 broth microdilution method
Staphylococcus aureus [39] = assay: Antibacterial activity against coagulase-negative and oxacillin-resistant Staphylococcus aureus by CLSI M7-A7 broth microdilution method
Escherichia coli [40] = assay: Antibacterial activity against ceftazidime-susceptible Escherichia coli by CLSI M7-A7 broth microdilution method
Citrobacter freundii [41] = assay: Antibacterial activity against ceftazidime-nonsusceptible Citrobacter freundii by CLSI M7-A7 broth microdilution method
Pasteurella multocida [42] = assay: Antibacterial activity against Pasteurella multocida assessed as susceptible isolates by CLSI M7-A7 broth microdilution method

C[C@H]1COc2c(N3CCN(C)CC3)c(F)cc3c(=O)c(C(=O)O)cn1c23.C[C@H]1COc2c(N3CCN(C)CC3)c(F)cc3c(=O)c(C(=O)O)cn1c23.O [LEVOFLOXACIN]
Activity (Providencia sp.): 66.7%
Activity (Enterobacteriaceae [1]): 89.6%
MIC50 (Morganella morganii): ≤ 0.03 µg/mL
MIC90 (Morganella morganii): 8 µg/mL
Activity (Streptococcus pyogenes [2]): 100%
Activity (Acinetobacter [3]): 6.3%
Activity (Haemophilus influenzae [4]): 100%
Activity (Streptococcus viridans [5]): 92.9%
MIC50 (Enterobacteriaceae [6]): 0.06 µg/mL
MIC90 (Enterobacteriaceae [6]): 4 µg/mL
MIC50 (Serratia marcescens [7]): 0.12 µg/mL
MIC90 (Serratia marcescens [7]): 1 µg/mL
Activity (Streptococcus viridans [8]): 100%
MIC50 (Haemophilus influenzae [9]): 0.015 µg/mL
MIC90 (Haemophilus influenzae [9]): 0.03 µg/mL
MIC50 (Enterobacter cloacae [10]): 0.12 µg/mL
MIC90 (Enterobacter cloacae [10]): 1 µg/mL
MIC50 (Streptococcus pyogenes [11]): 0.5 µg/mL
MIC90 (Streptococcus pyogenes [11]): 1 µg/mL
Activity (Staphylococcus aureus [12]): 15.2%
Activity (Proteus mirabilis [13]): 75.9%
MIC50 (Proteus mirabilis [14]): 0.06 µg/mL
MIC90 (Proteus mirabilis [14]): 16 µg/mL
MIC50 (Streptococcus agalactiae [15]): 0.5 µg/mL
MIC90 (Streptococcus agalactiae [15]): 1 µg/mL
Activity (Staphylococcus aureus [16]): 81.6%
Activity (Haemophilus influenzae [17]): 100%
Activity (Streptococcus agalactiae [18]): 97.6%
Activity (Enterobacteriaceae [19]): 9.4%
Activity (Staphylococcus aureus [20]): 25.6%
Activity (Streptococcus viridans [21]): 0%
Activity (Enterobacteriaceae [22]): 41.8%
MIC50 (Staphylococcus aureus [23]): 0.12 µg/mL
MIC90 (Staphylococcus aureus [23]): 16 µg/mL
Activity (Klebsiella pneumoniae [24]): 1.4%
MIC (Citrobacter freundii [25]): ≤ 0.03 µg/mL
MIC50 (Citrobacter freundii [25]): ≤ 0.03 µg/mL
MIC90 (Citrobacter freundii [25]): 1 µg/mL
MIC50 (Pasteurella multocida [26]): ≤ 0.015 µg/mL
MIC90 (Pasteurella multocida [26]): 0.03 µg/mL
Activity (Streptococcus pneumoniae): 1.5%
Activity (Acinetobacter [27]): 87.5%
MIC (Enterobacter cloacae [28]): ≤ 0.03 µg/mL
MIC50 (Enterobacter cloacae [28]): ≤ 0.03 µg/mL
MIC90 (Enterobacter cloacae [28]): 0.5 µg/mL
Activity (Citrobacter freundii [29]): 24.2%
Activity (Streptococcus agalactiae [30]): 100%
MIC50 (Acinetobacter [31]): 16 µg/mL
Activity (Staphylococcus aureus [32]): 17.9%
MIC50 (Staphylococcus aureus [33]): 8 µg/mL
MIC90 (Staphylococcus aureus [33]): > 16 µg/mL
Activity (Serratia marcescens [34]): 98.3%
MIC50 (Staphylococcus aureus [35]): 0.12 µg/mL
MIC90 (Staphylococcus aureus [35]): 8 µg/mL
MIC50 (Escherichia coli [36]): > 16 µg/mL
MIC90 (Escherichia coli [36]): > 16 µg/mL
Activity (Klebsiella pneumoniae [37]): 37.9%
Activity (Citrobacter freundii [38]): 72.7%
MIC50 (Staphylococcus aureus [39]): 8 µg/mL
MIC90 (Staphylococcus aureus [39]): > 16 µg/mL
MIC50 (Escherichia coli [40]): ≤ 0.03 µg/mL
MIC90 (Escherichia coli [40]): 16 µg/mL
MIC50 (Citrobacter freundii [41]): 0.25 µg/mL
MIC90 (Citrobacter freundii [41]): 16 µg/mL
Activity (Pasteurella multocida [42]): 95.5%
